From ChEMBL document CHEMBL1139716, “Naphtho[2,3-b][1,4]-thiazine-5,10-diones and 3-substituted-1,4-dioxo-1,4-dihydronaphthalen-2-yl-thioalkanoate derivatives: synthesis and biological evaluation as potential antibacterial and antifungal agents” (Bioorg Med Chem Lett, 2006)
≈ marks a conversion by molar mass, not a printed value.

Key:
Candida albicans = assay: Antifungal activity against Candida albicans by broth microdilution technique; format: functional, organism-based
Candida parapsilosis = assay: Antifungal activity against Candida parapsilosis ATCC 22019 by broth microdilution technique; format: functional, organism-based; settings: Lodderomyces parapsilosis
Cryptococcus neoformans = assay: Antifungal activity against Cryptococcus neoformans by broth microdilution technique; format: functional, organism-based
Aspergillus fumigatus = assay: Antifungal activity against Aspergillus fumigatus by broth microdilution technique; format: functional, organism-based
Sporothrix schenckii = assay: Antifungal activity against Sporothrix schenckii by broth microdilution technique; format: functional, organism-based
Trichophyton benhamiae = assay: Antifungal activity against Trichophyton mentagrophytes by broth microdilution technique; format: functional, organism-based, Arthroderma benhamiae
Staphylococcus aureus = assay: Antibacterial activity against Staphylococcus aureus by broth microdilution technique; format: functional, organism-based
Enterococcus faecalis = assay: Antibacterial activity against Streptococcus faecalis by broth microdilution technique; format: functional, organism-based
Klebsiella pneumoniae = assay: Antibacterial activity against Klebsiella pneumoniae by broth microdilution technique; format: functional, organism-based
Escherichia coli = assay: Antibacterial activity against Escherichia coli by broth microdilution technique; format: functional, organism-based
Pseudomonas aeruginosa = assay: Antibacterial activity against Pseudomonas aeruginosa by broth microdilution technique; format: functional, organism-based
[1] = Staphylococcus aureus, read-out: IC50
[2] = Enterococcus faecalis, read-out: IC50
[3] = Klebsiella pneumoniae, read-out: IC50
[4] = Escherichia coli, read-out: IC50
[5] = Pseudomonas aeruginosa, read-out: IC50

Row | Compound | MIC (Candida albicans) | MIC (Candida parapsilosis) | IC50 (Cryptococcus neoformans) | MIC (Cryptococcus neoformans) | IC50 (Aspergillus fumigatus) | MIC (Aspergillus fumigatus) | IC50 (Sporothrix schenckii) | MIC (Sporothrix schenckii) | IC50 (Trichophyton benhamiae) | MIC (Trichophyton benhamiae) | MIC (Staphylococcus aureus; Staphylococcus aureus) | IC50 (Staphylococcus aureus; [1]) | MIC (Enterococcus faecalis; Enterococcus faecalis) | IC50 (Enterococcus faecalis; [2]) | MIC (Klebsiella pneumoniae; Klebsiella pneumoniae) | IC50 (Klebsiella pneumoniae; [3]) | MIC (Escherichia coli; Escherichia coli) | IC50 (Escherichia coli; [4]) | IC50 (Candida albicans) | IC50 (Candida parapsilosis) | further results
1 | OC(Cn1cncn1)(Cn1cncn1)c1ccc(F)cc1F [FLUCONAZOLE] | 0.5 µg/mL (≈ 1.63 µM) | 1 µg/mL (≈ 3.27 µM) | 0.46 µg/mL (≈ 1.5 µM) | 1 µg/mL (≈ 3.27 µM) | 1.06 µg/mL (≈ 3.46 µM) | 2 µg/mL (≈ 6.53 µM) | 1.45 µg/mL (≈ 4.73 µM) | 2 µg/mL (≈ 6.53 µM) | 0.63 µg/mL (≈ 2.06 µM) | 1 µg/mL (≈ 3.27 µM) |  |  |  |  |  |  |  |  |  |  | 
2 | CCOC(=O)C(C)SC1=C(NCCc2ccc(OC)c(OC)c2)C(=O)c2ccccc2C1=O (configuration not stated) | > 50 µg/mL | > 50 µg/mL | > 50 µg/mL | > 50 µg/mL | > 50 µg/mL | > 50 µg/mL | > 50 µg/mL | > 50 µg/mL | 14 µg/mL (≈ 29.8 µM) | 25 µg/mL (≈ 53.2 µM) | 12.5 µg/mL (≈ 26.6 µM) | 9.52 µg/mL (≈ 20.3 µM) | > 50 µg/mL | > 50 µg/mL | 50 µg/mL (≈ 106 µM) | 42.5 µg/mL (≈ 90.6 µM) | 50 µg/mL (≈ 106 µM) | 44.3 µg/mL (≈ 94.3 µM) | > 50 µg/mL | > 50 µg/mL | MIC (Pseudomonas aeruginosa; Pseudomonas aeruginosa): 50 µg/mL (≈ 106 µM); IC50 (Pseudomonas aeruginosa; [5]): 46.2 µg/mL (≈ 98.5 µM)
3 | CCOC(=O)C(C)SC1=C(NN)C(=O)c2ccccc2C1=O (configuration not stated) | 50 µg/mL (≈ 156 µM) | 25 µg/mL (≈ 78 µM) | 13.3 µg/mL (≈ 41.6 µM) | 25 µg/mL (≈ 78 µM) | 22.4 µg/mL (≈ 69.8 µM) | 25 µg/mL (≈ 78 µM) | 22 µg/mL (≈ 68.7 µM) | 25 µg/mL (≈ 78 µM) | 4.5 µg/mL (≈ 14 µM) | 6.25 µg/mL (≈ 19.5 µM) | 6.25 µg/mL (≈ 19.5 µM) | 5.65 µg/mL (≈ 17.6 µM) | 25 µg/mL (≈ 78 µM) | 22.3 µg/mL (≈ 69.5 µM) | 6.25 µg/mL (≈ 19.5 µM) | 5.28 µg/mL (≈ 16.5 µM) | 6.25 µg/mL (≈ 19.5 µM) | 5.2 µg/mL (≈ 16.2 µM) | 24.2 µg/mL (≈ 75.7 µM) | 17.3 µg/mL (≈ 54.1 µM) | MIC (Pseudomonas aeruginosa; Pseudomonas aeruginosa): 6.25 µg/mL (≈ 19.5 µM); IC50 (Pseudomonas aeruginosa; [5]): 4.62 µg/mL (≈ 14.4 µM)
4 | CCOC(=O)CSC1=C(NCC(C)C)C(=O)c2ccccc2C1=O | > 50 µg/mL | > 50 µg/mL | > 50 µg/mL | > 50 µg/mL | > 50 µg/mL | > 50 µg/mL | 22.8 µg/mL (≈ 65.7 µM) | 50 µg/mL (≈ 144 µM) | 9.8 µg/mL (≈ 28.2 µM) | 12.5 µg/mL (≈ 36 µM) | 25 µg/mL (≈ 72 µM) | 21.6 µg/mL (≈ 62.1 µM) | 25 µg/mL (≈ 72 µM) | 19.5 µg/mL (≈ 56.2 µM) | 50 µg/mL (≈ 144 µM) | 38.5 µg/mL (≈ 111 µM) | 50 µg/mL (≈ 144 µM) | 39.3 µg/mL (≈ 113 µM) | > 50 µg/mL | > 50 µg/mL | MIC (Pseudomonas aeruginosa; Pseudomonas aeruginosa): 50 µg/mL (≈ 144 µM); IC50 (Pseudomonas aeruginosa; [5]): 42.5 µg/mL (≈ 122 µM)
5 | CCOC(=O)C(C)SC1=C(NC(C)(C)C)C(=O)c2ccccc2C1=O (configuration not stated) | 50 µg/mL (≈ 138 µM) | 25 µg/mL (≈ 69.2 µM) | 10.3 µg/mL (≈ 28.5 µM) | 12.5 µg/mL (≈ 34.6 µM) | 21.8 µg/mL (≈ 60.4 µM) | 25 µg/mL (≈ 69.2 µM) | 10.9 µg/mL (≈ 30.2 µM) | 12.5 µg/mL (≈ 34.6 µM) | 2.8 µg/mL (≈ 7.75 µM) | 3.12 µg/mL (≈ 8.63 µM) | 6.25 µg/mL (≈ 17.3 µM) | 3.98 µg/mL (≈ 11 µM) | 6.25 µg/mL (≈ 17.3 µM) | 5.62 µg/mL (≈ 15.5 µM) | 6.25 µg/mL (≈ 17.3 µM) | 4.82 µg/mL (≈ 13.3 µM) | 6.25 µg/mL (≈ 17.3 µM) | 4.38 µg/mL (≈ 12.1 µM) | 38.3 µg/mL (≈ 106 µM) | 22.2 µg/mL (≈ 61.4 µM) | MIC (Pseudomonas aeruginosa; Pseudomonas aeruginosa): 6.25 µg/mL (≈ 17.3 µM); IC50 (Pseudomonas aeruginosa; [5]): 5.32 µg/mL (≈ 14.7 µM)
6 | CCOC(=O)C(C)SC1=C(N)C(=O)c2ccccc2C1=O (configuration not stated) | 25 µg/mL (≈ 81.9 µM) | 25 µg/mL (≈ 81.9 µM) | 12 µg/mL (≈ 39.3 µM) | 12.5 µg/mL (≈ 40.9 µM) | 16.6 µg/mL (≈ 54.3 µM) | 25 µg/mL (≈ 81.9 µM) | 17.9 µg/mL (≈ 58.7 µM) | 25 µg/mL (≈ 81.9 µM) | > 50 µg/mL | > 50 µg/mL | 6.25 µg/mL (≈ 20.5 µM) | 6.16 µg/mL (≈ 20.2 µM) | 12.5 µg/mL (≈ 40.9 µM) | 8.54 µg/mL (≈ 28 µM) | 12.5 µg/mL (≈ 40.9 µM) | 11.7 µg/mL (≈ 38.3 µM) | 1.56 µg/mL (≈ 5.11 µM) | 1.18 µg/mL (≈ 3.86 µM) | 24.2 µg/mL (≈ 79.3 µM) | 21.2 µg/mL (≈ 69.6 µM) | MIC (Pseudomonas aeruginosa; Pseudomonas aeruginosa): 50 µg/mL (≈ 164 µM); IC50 (Pseudomonas aeruginosa; [5]): 34.5 µg/mL (≈ 113 µM)
7 | GENTAMICIN |  |  |  |  |  |  |  |  |  |  |  |  |  |  |  |  |  |  |  |  | IC50 (Staphylococcus aureus): 4.46 µg/mL; IC50 (Enterococcus faecalis): 0.62 µg/mL; IC50 (Klebsiella pneumoniae): 0.34 µg/mL; IC50 (Escherichia coli): 0.11 µg/mL; IC50 (Pseudomonas aeruginosa): 24.64 µg/mL
8 | C[C@@H]1[C@H](O)[C@@H](C)/C=C/C=C/C=C/C=C/C=C/C=C/C=C/[C@H](O[C@@H]2O[C@H](C)[C@@H](O)[C@H](N)[C@@H]2O)C[C@@H]2O[C@](O)(C[C@@H](O)C[C@@H](O)[C@H](O)CC[C@@H](O)C[C@@H](O)CC(=O)O[C@H]1C)C[C@H](O)[C@H]2C(=O)O [AMPHOTERICIN B] | 0.12 µg/mL (≈ 0.13 µM) | 0.12 µg/mL (≈ 0.13 µM) | 0.04 µg/mL (≈ 0.0433 µM) | 0.06 µg/mL (≈ 0.0649 µM) | 0.38 µg/mL (≈ 0.411 µM) | 0.5 µg/mL (≈ 0.541 µM) | 0.08 µg/mL (≈ 0.0866 µM) | 0.12 µg/mL (≈ 0.13 µM) | 0.09 µg/mL (≈ 0.0974 µM) | 0.12 µg/mL (≈ 0.13 µM) |  |  |  |  |  |  |  |  | 0.09 µg/mL (≈ 0.0974 µM) | 0.11 µg/mL (≈ 0.119 µM) | 
